Active and inactive are the calls of the source.
Key:
[1] = target: T1, RNA-binding protein pos-1 (Caenorhabditis elegans, UniProt G5EF15); assay: disruptors of C. elegans POS-1 RNA interaction – biochemical, fluorescence polarization, dose response (AID 1964);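 also: purified POS-1 fused to maltose binding protein made in E. coli; potency of compounds blocking POS-1 binding to fluorescent RNA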
T1 sequence (G5EF15 whole entry): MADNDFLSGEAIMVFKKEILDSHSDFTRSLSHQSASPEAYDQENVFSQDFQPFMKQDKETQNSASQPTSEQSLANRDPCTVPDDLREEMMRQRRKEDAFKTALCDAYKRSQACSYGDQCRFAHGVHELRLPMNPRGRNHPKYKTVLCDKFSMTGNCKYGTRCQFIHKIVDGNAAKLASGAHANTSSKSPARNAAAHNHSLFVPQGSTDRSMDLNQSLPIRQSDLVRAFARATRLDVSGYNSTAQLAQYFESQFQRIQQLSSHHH

[2] = target: T2, Zinc finger protein mex-5 (Caenorhabditis elegans, UniProt Q9XUB2); assay: potency of MEX-5 RNA-binding blockers – biochemical, C. elegans, fluorescence polarization, dose response (AID 1960)
T2 sequence (Q9XUB2 whole entry): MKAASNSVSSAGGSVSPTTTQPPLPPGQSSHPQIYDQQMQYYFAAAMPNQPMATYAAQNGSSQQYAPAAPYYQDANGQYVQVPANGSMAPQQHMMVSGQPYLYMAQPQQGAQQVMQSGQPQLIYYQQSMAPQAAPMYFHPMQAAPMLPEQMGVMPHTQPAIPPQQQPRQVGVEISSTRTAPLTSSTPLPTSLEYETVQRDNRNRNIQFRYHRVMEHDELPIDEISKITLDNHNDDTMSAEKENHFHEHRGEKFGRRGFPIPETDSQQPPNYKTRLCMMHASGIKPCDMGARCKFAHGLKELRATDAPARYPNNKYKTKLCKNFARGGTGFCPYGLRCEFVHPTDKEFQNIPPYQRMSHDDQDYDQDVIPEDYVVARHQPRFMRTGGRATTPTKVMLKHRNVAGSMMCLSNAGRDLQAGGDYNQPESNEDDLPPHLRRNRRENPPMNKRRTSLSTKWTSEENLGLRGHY

NS3 = NS3 (Hepatitis C virus, UniProt A3EZJ3); assay: PubChem AID 2173; set-up: species or system Hepacivirus hominis
Chain of NS3 (A3EZJ3 whole entry): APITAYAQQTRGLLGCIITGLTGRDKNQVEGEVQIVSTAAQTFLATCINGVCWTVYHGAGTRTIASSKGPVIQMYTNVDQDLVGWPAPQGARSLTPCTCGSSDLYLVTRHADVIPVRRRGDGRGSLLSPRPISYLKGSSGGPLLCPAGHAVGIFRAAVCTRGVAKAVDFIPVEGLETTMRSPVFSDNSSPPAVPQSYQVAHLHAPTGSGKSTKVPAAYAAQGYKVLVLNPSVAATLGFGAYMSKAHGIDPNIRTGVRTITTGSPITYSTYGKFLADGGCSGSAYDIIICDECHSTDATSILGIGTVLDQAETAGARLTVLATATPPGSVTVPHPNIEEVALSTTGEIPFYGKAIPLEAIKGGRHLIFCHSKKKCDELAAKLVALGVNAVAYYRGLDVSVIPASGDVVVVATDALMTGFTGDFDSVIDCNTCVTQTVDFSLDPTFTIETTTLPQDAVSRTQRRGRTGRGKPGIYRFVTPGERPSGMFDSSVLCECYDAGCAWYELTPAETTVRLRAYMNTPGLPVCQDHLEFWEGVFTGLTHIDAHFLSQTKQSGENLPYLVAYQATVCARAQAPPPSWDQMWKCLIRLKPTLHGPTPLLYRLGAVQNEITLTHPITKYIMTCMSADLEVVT

[3] = THP-1 cell cytotoxicity, dose response, cytotoxicity control for non-replicating M. tuberculosis project (AID 489025); format: functional
[4] = target: T3, Heat shock factor protein 1 (Mus musculus, UniProt P38532); assay: enhancement of HSF1-driven luciferase signal – cell-based, NIH3T3, luminescence, dose retest, confirmation (AID 435004); format: functional;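 also: stress induced by proteasome inhibitor MG132 added 30 min after compound; luciferase reporter driven by HSF1 response element in NIH3T3 cells; actives raise luminescence as potentiators of the MG132 stress response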
T3 sequence (P38532 whole entry): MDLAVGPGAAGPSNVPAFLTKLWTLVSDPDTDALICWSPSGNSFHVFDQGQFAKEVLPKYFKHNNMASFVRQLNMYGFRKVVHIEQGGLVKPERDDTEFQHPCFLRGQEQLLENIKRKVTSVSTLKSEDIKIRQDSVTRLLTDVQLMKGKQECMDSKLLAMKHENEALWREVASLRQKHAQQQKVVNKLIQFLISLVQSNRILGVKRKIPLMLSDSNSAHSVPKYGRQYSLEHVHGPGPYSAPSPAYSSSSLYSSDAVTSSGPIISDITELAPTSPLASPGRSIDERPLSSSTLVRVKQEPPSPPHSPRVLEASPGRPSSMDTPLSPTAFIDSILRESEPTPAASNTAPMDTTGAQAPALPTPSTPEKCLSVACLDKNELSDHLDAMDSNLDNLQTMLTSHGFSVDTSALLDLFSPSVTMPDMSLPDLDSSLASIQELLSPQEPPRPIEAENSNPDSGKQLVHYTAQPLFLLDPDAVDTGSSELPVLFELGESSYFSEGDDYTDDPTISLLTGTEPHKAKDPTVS

cells = format: functional
Vero = assay: cells; format: functional; settings: Chlorocebus sabaeus
[5] = target: T4, Eukaryotic translation initiation factor 4H (Homo sapiens, UniProt Q15056); assay: eIF4H binding inhibition – biochemical, uHTS, fluorescence polarization, translation initiation inhibitor project, primary screen (AID 2012)
[6] = target: T5, Polyadenylate-binding protein 1 (Homo sapiens, UniProt P11940); assay: blockers of PABP interaction with poly(A) – biochemical, fluorescence polarization, […] (AID 2014)
T5 sequence (P11940 whole entry): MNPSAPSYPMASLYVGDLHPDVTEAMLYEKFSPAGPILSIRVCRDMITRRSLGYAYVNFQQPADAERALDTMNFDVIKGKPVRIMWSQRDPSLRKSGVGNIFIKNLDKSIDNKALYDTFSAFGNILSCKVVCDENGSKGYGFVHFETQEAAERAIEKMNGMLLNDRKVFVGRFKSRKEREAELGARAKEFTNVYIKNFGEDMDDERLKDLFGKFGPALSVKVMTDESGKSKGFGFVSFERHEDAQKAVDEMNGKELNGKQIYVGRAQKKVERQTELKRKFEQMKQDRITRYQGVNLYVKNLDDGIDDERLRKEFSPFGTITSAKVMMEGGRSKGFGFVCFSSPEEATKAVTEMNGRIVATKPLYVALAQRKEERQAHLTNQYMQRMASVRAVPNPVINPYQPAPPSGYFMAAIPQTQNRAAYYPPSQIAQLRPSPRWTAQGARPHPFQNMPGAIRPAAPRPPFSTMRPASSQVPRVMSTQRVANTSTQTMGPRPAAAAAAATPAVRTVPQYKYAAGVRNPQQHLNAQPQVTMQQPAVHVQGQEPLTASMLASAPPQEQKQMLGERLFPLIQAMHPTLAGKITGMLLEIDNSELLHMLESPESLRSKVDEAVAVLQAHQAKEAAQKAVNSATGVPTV

[7] = target: T4, Eukaryotic translation initiation factor 4H; assay: inhibitors of translation initiation factor eIF4H – SAR follow-up (AID 435011); format: functional
[8] = target: DNA dC->dU-editing enzyme APOBEC-3A (Homo sapiens, UniProt P31941); assay: Dose Response confirmation of small molecule APOBEC3A DNA Deaminase Inhibitors via a fluorescence-based single-stranded DNA deaminase assay. [Related pubchem assays (depositor defined):AID493011, AID493024]; format: functional
Chain of DNA dC->dU-editing enzyme APOBEC-3A (P31941 whole entry): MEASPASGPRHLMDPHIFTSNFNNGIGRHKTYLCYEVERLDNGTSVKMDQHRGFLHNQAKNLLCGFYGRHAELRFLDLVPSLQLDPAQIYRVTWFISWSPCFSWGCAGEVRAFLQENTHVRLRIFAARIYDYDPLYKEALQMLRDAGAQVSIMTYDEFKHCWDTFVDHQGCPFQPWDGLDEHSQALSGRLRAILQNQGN

[9] = target: T5, Polyadenylate-binding protein 1; assay: PABP inhibition in translation initiation, SAR follow-up (AID 435018); format: functional
[10] = target: DNA dC->dU-editing enzyme APOBEC-3G (Homo sapiens, UniProt Q9HC16); format: functional;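 also: Dose-response counterscreen measuring inhibition of APOBEC3G DNA deaminase activity, run while confirming APOBEC3A inhibitors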
Chain of DNA dC->dU-editing enzyme APOBEC-3G (Q9HC16 whole entry): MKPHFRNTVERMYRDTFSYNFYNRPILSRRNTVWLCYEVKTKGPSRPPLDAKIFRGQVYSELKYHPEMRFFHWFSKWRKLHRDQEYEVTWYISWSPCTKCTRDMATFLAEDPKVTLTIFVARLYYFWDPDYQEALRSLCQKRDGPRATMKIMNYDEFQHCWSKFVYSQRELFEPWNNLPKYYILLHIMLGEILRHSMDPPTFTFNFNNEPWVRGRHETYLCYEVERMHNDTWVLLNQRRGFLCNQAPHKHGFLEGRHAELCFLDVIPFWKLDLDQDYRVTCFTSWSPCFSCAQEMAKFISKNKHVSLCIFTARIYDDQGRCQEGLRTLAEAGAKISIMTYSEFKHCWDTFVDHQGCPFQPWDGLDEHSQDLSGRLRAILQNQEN

[11] = target: T6, Neuropeptides B/W receptor type 1 (Homo sapiens, UniProt P48145); assay: Fluorescence-based dose response cell-based high throughput screening assay to identify antagonists of the G-protein coupled receptor 7 (GPR7). [Related pubchem assays: 1952 (Screening assay (GPR7 antagonists).), 1880 (Summary AID.)]; format: functional
T6 sequence (P48145 whole entry): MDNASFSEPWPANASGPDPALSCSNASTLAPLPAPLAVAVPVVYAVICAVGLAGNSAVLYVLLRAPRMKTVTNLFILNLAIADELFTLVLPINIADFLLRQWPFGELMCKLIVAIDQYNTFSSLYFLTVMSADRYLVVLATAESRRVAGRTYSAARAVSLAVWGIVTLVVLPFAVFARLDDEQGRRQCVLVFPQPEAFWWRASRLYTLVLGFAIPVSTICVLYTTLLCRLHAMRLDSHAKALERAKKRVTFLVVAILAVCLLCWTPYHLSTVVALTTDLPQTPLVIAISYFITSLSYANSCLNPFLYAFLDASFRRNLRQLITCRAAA

[12] = target: Melanin-concentrating hormone receptor 1 (Homo sapiens, UniProt Q99705); assay: Fluorescence-based counterscreen for antagonists of the G-protein coupled receptor 7 (GPR7): cell-based high throughput dose response assay to identify antagonists of the melanin-concentrating hormone receptor 1 (MCHR1).; format: functional
Chain of Melanin-concentrating hormone receptor 1 (Q99705 whole entry): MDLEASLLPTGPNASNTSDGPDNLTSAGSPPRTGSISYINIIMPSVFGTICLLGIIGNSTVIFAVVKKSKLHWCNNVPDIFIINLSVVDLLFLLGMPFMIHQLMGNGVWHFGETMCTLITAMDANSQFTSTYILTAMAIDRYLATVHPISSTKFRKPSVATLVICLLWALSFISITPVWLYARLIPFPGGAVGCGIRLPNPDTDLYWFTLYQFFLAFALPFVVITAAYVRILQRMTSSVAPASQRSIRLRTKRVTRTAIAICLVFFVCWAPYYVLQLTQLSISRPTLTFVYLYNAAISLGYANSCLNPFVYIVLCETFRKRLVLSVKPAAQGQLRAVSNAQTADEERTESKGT

COc1ccc(N2C(=O)NC(=O)/C(=C/c3ccc([N+](=O)[O-])s3)C2=O)cc1
> 300 µM (not active): EC50 [1]
active: EC50 [2] 24.3 µM | IC50 (NS3) 9.42 µM | CC50 [3] 38.5 µM | EC50 [4] 8.55 µM | IC50 (cells) 26.7 µM | CC50 (Vero) > 25 µM

Cc1ccc(NC(=O)C2CCN(C(=O)c3cccs3)CC2)c(C)c1
inactive: IC50 [5] > 100 µM
active: IC50 [6] 6.51 µM | IC50 [7] 47.6 µM | IC50 [8] 4.37 µM | IC50 [9] 4.95 µM | IC50 [10] 6.56 µM

COc1ccc(S(=O)(=O)N2CCC(C(=O)NCc3ccco3)CC2)cc1
> 43.8 µM (not active): IC50 [11] | IC50 [12]
